In patent publication US20070078096A1, “Buffered drug formulations for transdermal electrotransport delivery” (priority 1997, published 2007):
Read-outs that look alike come from different tables or passages of the source. Non-standard residues stand in square brackets, D forms with d. Residues, ends and D or L forms follow the SMILES beside them. Cit = NC(=O)NCCC[C@H](N)C(=O)O; Orn = NCCC[C@H](N)C(=O)O

Test: pKa, pI and charge distribution of buffers
Conditions: for % salt: fraction of dipeptide carrying a net charge in aqueous solution at pH equal to pI
Text: At the pI, three species coexist.
In an electric field these negative species move in the opposite direction of their positive associated counterions.
Choice of the dipeptide buffer will be on a case-by-case basis depending on the drug compound and the desired level of pH control and conductivity of the formulation.

| Molecule | pI (Table 2) | % salt [%] | pka A | pI | species presenting a net charge (salt form) at the pI (at pI) | pka B |
| --- | --- | --- | --- | --- | --- | --- |
| N[C@@H](Cc1cnc[nH]1)C(=O)N[C@@H](Cc1ccc(O)cc1)C(=O)O [His-Tyr] (H-His-Tyr-OH) | 6.95 | 22 |  |  |  |  |
| N[C@@H](Cc1cnc[nH]1)C(=O)N[C@@H](CO)C(=O)O [His-Ser] (H-His-Ser-OH) | 6.95 | 22 | 2.65 |  |  |  |
| CSCC[C@H](NC(=O)[C@@H](N)Cc1cnc[nH]1)C(=O)O [His-Met] (H-His-Met-OH) | 6.95 | 22 | 2.89 |  |  |  |
| N[C@@H](Cc1cnc[nH]1)C(=O)N[C@@H](Cc1cnc[nH]1)C(=O)O [His-His] | 7.40 | 32 | 2.25 |  |  |  |
| Cn1cncc1C[C@H](NC(=O)CCN)C(=O)O [Anserine] | 8.27 | 10 | 2.64 |  |  |  |
| NC(=O)CC[C@H](NC(=O)[C@@H](N)Cc1cnc[nH]1)C(=O)O [His-Gln] (H-His-Gln-OH) | 6.95 | 22 | 2.93 |  |  |  |
| O=C(O)C(Cc1cnc[nH]1)NC(=O)C1CCCN1 (stereo not shown) [Pro-His] | 7.90 | 11 | 2.42 |  |  |  |
| NCCC[C@H](NC(=O)[C@@H](N)Cc1c[nH]cn1)C(=O)O [His-Ornithine] (H-His-[Orn]-OH) | 9.40 | 5 | 2.82 |  |  |  |
| O=C(O)[C@H](Cc1c[nH]cn1)NC(=O)[C@@H]1CC(O)CN1 (stereo partly shown) [Hydroxyproline-His] | 7.45 | 25 | 2.42 |  |  |  |
| His-Gly-Gly-Gly-Gly (HGGGG; printed: His-Gly-Gly-Gly-Gly) |  |  |  | 6.0 |  |  |
| N[C@@H](Cc1ccc(O)cc1)C(=O)N[C@@H](Cc1cnc[nH]1)C(=O)O [Tyr-His] (H-Tyr-His-OH) | 7.15 | 39 |  |  |  |  |
| Gly-Gly-His |  |  |  | 7.5 |  |  |
| NC(=O)C[C@H](NC(=O)[C@@H](N)Cc1cnc[nH]1)C(=O)O [His-Asn] (H-His-Asn-OH) | 6.95 | 22 | 2.62 |  |  |  |
| NC(N)=NCCC[C@H](NC(=O)[C@@H](N)Cc1ccc(O)cc1)C(=O)O [Tyr-Arg] | 8.40 | 17 |  |  |  |  |
| NC(=O)C[C@H](N)C(=O)N[C@@H](Cc1cnc[nH]1)C(=O)O [Asn-His] (H-Asn-His-OH) | 7.00 | 44 | 2.42 |  |  |  |
| His-Gly-Gly-Gly (HGGG; printed: His-Gly-Gly-Gly) |  |  |  | 6.9 |  |  |
| N[C@@H](CO)C(=O)N[C@@H](Cc1cnc[nH]1)C(=O)O [Ser-His] (H-Ser-His-OH) | 7.20 | 36 | 2.42 |  |  |  |
| NC[C@H](O)CC[C@H](N)C(=O)N[C@@H](Cc1c[nH]cn1)C(=O)O [Hydroxylysine-His] | 8.60 | 13 | 2.42 |  |  |  |
| NC(N)=NCCC[C@H](N)C(=O)N[C@@H](CC(=O)O)C(=O)O [Arg-Asp] (H-Arg-Asp-OH) | 6.08 | 2 |  |  |  |  |
| CC[C@H](C)[C@H](N)C(=O)N[C@@H](Cc1cnc[nH]1)C(=O)O [Isoleucine-His] (H-Ile-His-OH) | 7.44 | 25 | 2.42 |  |  |  |
| NC(=O)NCCC[C@H](N)C(=O)N[C@@H](Cc1c[nH]cn1)C(=O)O [Citrulline-His] (H-[Cit]-His-OH) | 7.30 | 32 | 2.42 |  |  |  |
| Gly-Gly-Gly-His (GGGH; printed: Gly-Gly-Gly-His) |  |  |  | 7.5 |  |  |
| N[C@@H](Cc1ccccc1)C(=O)N[C@@H](Cc1cnc[nH]1)C(=O)O [Phe-His] (H-Phe-His-OH) | 7.20 | 36 | 2.42 |  |  |  |
| CSCC[C@H](N)C(=O)N[C@@H](Cc1cnc[nH]1)C(=O)O [Met-His] (H-Met-His-OH) | 7.35 | 30 | 2.42 |  |  |  |
| CC(C)[C@H](NC(=O)[C@@H](N)Cc1cnc[nH]1)C(=O)O [His-Val] (H-His-Val-OH) | 6.95 | 22 | 3.18 |  |  |  |

| Molecule | pI (Table 2) | % salt [%] | pka A | pI | species presenting a net charge (salt form) at the pI (at pI) | pka B |
| --- | --- | --- | --- | --- | --- | --- |
| NC(=O)CC[C@H](N)C(=O)N[C@@H](Cc1cnc[nH]1)C(=O)O [GIn-His] (H-Gln-His-OH) | 7.20 | 36 | 2.42 |  |  |  |
| Gly-Gly-Gly-Gly-His (GGGGH; printed: Gly-Gly-Gly-Gly-His) |  |  |  | 7.55 |  |  |
| CC(C)C[C@H](NC(=O)[C@@H](N)Cc1cnc[nH]1)C(=O)O [His-Leu] (H-His-Leu-OH) | 6.95 | 22 | 3.10 |  |  |  |
| N[C@@H](CCC(=O)O)C(=O)N[C@@H](Cc1cnc[nH]1)C(=O)O [Glu-His] (H-Glu-His-OH) | 5.20 | 5 |  | 5.2 | about 5% |  |
| CC(C)C[C@H](N)C(=O)N[C@@H](Cc1cnc[nH]1)C(=O)O [Leu-His] (H-Leu-His-OH) | 7.50 | 24 | 2.42 |  |  |  |
| NCCC(=O)N[C@@H](Cc1c[nH]cn1)C(=O)O [Beta-Alanylhistidine] | 7.70 | 16 |  |  |  |  |
| C[C@H](N)C(=O)N[C@@H](Cc1cnc[nH]1)C(=O)O [Ala-His] (H-Ala-His-OH) | 7.55 | 22 | 2.42 |  |  |  |
| N[C@@H](CC(=O)O)C(=O)N[C@@H](Cc1cnc[nH]1)C(=O)O [Asp-His] (H-Asp-His-OH) | 4.90 | 3 |  |  |  |  |
| N[C@@H](Cc1cnc[nH]1)C(=O)N1CCC[C@H]1C(=O)O [His-Pro] | 6.95 | 22 | 2.62 |  |  |  |
| His-Gly-Gly |  |  |  | 6.9 |  |  |
| NCCCC[C@H](N)C(=O)N[C@@H](Cc1cnc[nH]1)C(=O)O [Lys-His] | 9.50 | 5 | 2.42 |  |  |  |
| NCCC(=O)N[C@@H](Cc1cnc[nH]1)C(=O)O [Carnosine] | 8.17 | 8 |  |  |  |  |
| N[C@@H](Cc1cnc[nH]1)C(=O)N[C@@H](Cc1c[nH]c2ccccc12)C(=O)O [His-Trp] | 6.95 | 22 | 3.07 |  |  |  |
| NCCC[C@H](N)C(=O)N[C@@H](Cc1c[nH]cn1)C(=O)O [Ornithine-His] | 9.20 | 3 | 2.42 |  |  |  |
| NC(=O)NCCC[C@H](NC(=O)[C@@H](N)Cc1c[nH]cn1)C(=O)O [His-Citrulline] (H-His-[Cit]-OH) | 6.95 | 22 | 3.05 |  |  |  |
| NCC(O)CC[C@H](NC(=O)[C@@H](N)Cc1c[nH]cn1)C(=O)O (stereo partly shown) [His-Hydroxylysine] | 8.75 | 17 | 3.05 |  |  |  |
| NCC(=O)N[C@@H](CC(=O)O)C(=O)O [Gly-Asp] (H-Gly-Asp-OH) | 3.60 | 23 |  |  |  | 8.60 |
| NC(N)=NCCC[C@H](N)C(=O)N[C@@H](CCC(=O)O)C(=O)O [Arg-Glu] (H-Arg-Glu-OH) | 6.06 | 3 |  |  |  |  |
| NC(N)=NCCC[C@H](NC(=O)[C@@H](N)CCC(=O)O)C(=O)O [Glu-Arg] (H-Glu-Arg-OH) | 6.00 | 2 |  |  |  |  |
| N[C@@H](Cc1c[nH]c2ccccc12)C(=O)N[C@@H](Cc1cnc[nH]1)C(=O)O [Trp-His] (H-Trp-His-OH) | 7.30 | 32 | 2.42 |  |  |  |
| C[C@@H](O)[C@H](NC(=O)[C@@H](N)Cc1cnc[nH]1)C(=O)O [His-Thr] (H-His-Thr-OH) | 6.95 | 22 | 2.98 |  |  |  |
| N[C@@H](Cc1c[nH]cn1)C(=O)N1CC(O)C[C@H]1C(=O)O (stereo partly shown) [His-Hydroxyproline] | 6.95 | 22 | 2.42 |  |  |  |
| C[C@@H](O)[C@H](N)C(=O)N[C@@H](Cc1cnc[nH]1)C(=O)O [Thr-His] (H-Thr-His-OH) | 7.15 | 39 | 2.42 |  |  |  |
| N[C@@H](CC(=O)O)C(=O)N[C@@H](CC(=O)O)C(=O)O [Asp-Asp] (H-Asp-Asp-OH) | 3.05 | 43 |  |  |  | 8.26 |
